Patent US11274129B2, “Methods for protein tyrosine phosphorylation profiling with variant SH2 domains” (priority 2016, dated 2022)
Changes are numbered by the printed parent chain.

B1: TrM Fyn SH2 domain: variant human Fyn SH2 domain with Thr181Val, Ser186Ala and Lys204Leu (protein)
chain: APVDSIQAEEWYFGKLGRKDAERQLLSFGNPRGTFLIRESETVKGAYALSIRDWDDMKGDHVKHYLIRKLDNGGYYITTRAQFETLQQLVQHYSERAAGLCCRLVVPCHKG
modifications: SH2 protein domain; TrM human Fyn SH2 domain
notes: variant human Fyn SH2 domain with Thr181Val, Ser186Ala and Lys204Leu
B2: wild-type Fyn SH2 domain: wild-type human Fyn SH2 domain (protein)
chain: B1 chain with V43T, A48S, L66K
modifications: SH2 protein domain; Wild-type human Fyn SH2 domain
B3: QuadM Src SH2: TrM human Src SH2 domain variant with additional mutation Thr218Trp in its specificity-binding pocket; His6-tagged form SEQ ID NO: 13 (protein)
chain: DSIQAEEWYFGKITRRESERLLLNAENPRGTFLVRESETVKGAYALSVSDFDNAKGLNVKHYLIRKLDSGGFYIWSRTQFNSLQQLVAYYSKHADGLCHRLTTVCPTSK
modifications: SH2 protein domain; QuadM human Src SH2 domain

Assays:
[1] = system: BT-474 cells; assay: Cell growth inhibition assay (CellTiter 96 AQueous One Solution Cell Proliferation Assay); format: cell-based, human; settings: single inhibitor at different concentrations (FIG. 11A)
Method: (§1) Cell growth inhibition assays were performed with the CellTiter 96 AQueous One Solution Cell Proliferation Assay (Promega) according to the manufacturer's recommendations.

[2] = system: MDA-MB-231 cells; assay: as above; format: cell-based, human; settings: single inhibitor at different concentrations (FIG. 11A)
Method: as §1

[3] = system: SK-BR-3 cells; assay: as above; format: cell-based, human; settings: single inhibitor at different concentrations (FIG. 11A)
Method: as §1

[4] = system: MCF-7 cells; assay: as above; format: cell-based, human; settings: single inhibitor at different concentrations (FIG. 11A)
Method: as §1

[5] = molecular target: pTyr-including peptide found in the sequence of the receptor tyrosine kinase EGFR (Homo sapiens, UniProt P06241, K204L/S186A/T181V); settings: read-out: equilibrium dissociation constant (Kd); cited from earlier work
[6] = system: pTyr-including peptide found in the sequence of the receptor tyrosine kinase EGFR; assay: Binding of wild-type and TrM Fyn SH2 domain to EGFR pTyr peptide
Description: The relative affinity of a variant SH2 domain, including a SH2 Superbinder, can be readily assessed compared to the affinity of the relevant parent SH2 domain, using binding assays known in the art, including as described in Kaneko, T. et al., “SH2 Superbinders act as antagonists of cell signaling”, (2012) Sci. Signal. 5: ra68; and U.S. patent application Ser. No. 14/388,592.

[7] = molecular target: pTyr-including peptide found in the sequence of the receptor tyrosine kinase EGFR (Homo sapiens, UniProt P06241); settings: cited from earlier work
[8] = system: pTyr-including peptides from pervanadate-treated Jurkat cells; assay: Enrichment of pTyr-including peptides from pervanadate-treated Jurkat cells by affinity reagents, 1D LC-MS/MS; design: species or system human; settings: 3 mg Jurkat peptides
Method: Experiments were conducted to determine the relative efficacy of the variant Src SH2 domains and commonly used anti-pTyr antibodies as affinity reagents for pTyr-including peptides from biological samples. His6/GST-tagged TrM Src SH2 domain (SEQ ID NO: 11) and His6-tagged QuadM Src SH2 domain (SEQ ID NO: 13), as well as anti-pTyr antibodies, were prepared in functionally-equivalent molar amounts by using half the molar amount of the antibodies relative to the SH2 domain variants given that each antibody molecule has two binding sites for its antigen.
The first experiment tested the relative ability of the following affinity reagents to extract pTyr-including peptides from a peptide mixture prepared from Jurkat cells: a His6/GST-tagged TrM Src SH2 (SEQ ID NO: 11), a His6-tagged QuadM Src SH2 (SEQ ID NO: 13), the anti-pTyr antibody 4G10 (agarose conjugate, obtained from Millipore), and a mixture of commercially-available anti-pTyr antibodies. […] The two SH2 affinity reagents were also tested at a 30× amount; the antibodies were not tested at a 30× amount due to the prohibitive cost of doing so. The purified SH2 affinity reagents were prepared as described in Example 1. The antibody mixture contained 4G10 (as above), PY99 (obtained from Santa Cruz Biotechnology), and P-Tyr-100 (slurry of PTMScan® Phospho-Tyrosine Mouse mAb, obtained from Cell Signaling Technology). Since the concentration of P-Tyr-100 is unknown, the amount was used as recommended by the vendor (i.e., 4 μL for 1 mg peptide digest).
FIG. 2A presents a schematic of the experimental design. Each amount of His6-tagged SH2 domain variant or antibody was subjected to a binding experiment with 3 mg of a peptide mixture prepared from pervanadate-treated Jurkat cells.
Jurkat cells (obtained from ATCC) were cultured in a humidified atmosphere of 5% CO2 at 37° C. in Roswell Park Memorial Institute 1640 medium (RPMI-1640) supplemented with 10% bovine serum and 100 U/mL of streptomycin and penicillin.
The cells were again collected by centrifugation. The cell pellets were gently homogenized in an ice-cold lysis buffer containing 8 M urea, 50 mM tris(hydroxymethyl)aminomethane (Tris)-HCl (pH 7.4), 2% protease inhibitor cocktail (v/v, obtained from Sigma-Aldrich), 1% Triton X-100 (v/v), 1 mM NaF, and 1 mM Na3VO4, followed by sonication at 400 W for 120 s. After centrifugation at 25,000 g for 1 h, proteins were precipitated in ice-cold acetone/ethanol/acetic acid (50/50/0.1, V/V/V) solution. Subsequently, the proteins were diluted in reducing buffer containing 100 mM triethylammonium bicarbonate (TEAB) buffer (pH 8.2) and 8 M urea, and the final protein concentration was determined by Bradford assay. The protein suspension was reduced in 10 mM dithiothreitol (DTT) at 37° C. for 2 h, and it was then alkylated in 20 mM iodoacetamide (IAA) in darkness at room temperature for another 30 min. Trypsin digestion was performed at 37° C. overnight with an enzyme-to-protein ratio of 1/25 (w/w). The resulting peptide mixture was stored at −80° C. for further analysis.
Desalted Jurkat peptides (30 mg) were dissolved in ice-cold immunoaffinity purification (IAP) buffer and then split into 10 aliquots with 3 mg of Jurkat peptides each. Binding experiments were performed with the amounts of antibody (1×, 5×) or SH2 domain variant (1×, 5×, 30×) set out in Table 1 and FIG. 2A.
For antibody-based enrichment, 4G10 or the antibody mixture was incubated with the sample at 4° C. overnight while rotating. The beads were washed three times with ice-cold IAP buffer and twice with ice-cold water. To release the bound peptides, the beads were eluted twice with 200 μL 0.15% trifluoroacetic acid (TFA) for 15 min at room temperature.
For SH2-based enrichment, Ni-NTA beads containing the purified SH2 proteins were washed extensively in twenty column volumes of PBS buffer (pH 7.0) containing 20 mM imidazole. […] The washed beads were incubated with the peptide mixture at 4° C. overnight while rotating. […]

Row | Molecule | proliferation relative to no drug exposure [1] | proliferation relative to no drug exposure [2] | proliferation relative to no drug exposure [3] | proliferation relative to no drug exposure [4] | further results
1 | CCN1CCN(Cc2ccc(C(=O)Nc3ccc(C)c(Oc4ccc5c(c4)CC(=O)N5)c3)cc2C(F)(F)F)CC1 [DDR1-IN-1] | neither inhibitor had an effect | neither inhibitor had an effect | neither inhibitor had an effect | – | –
2 | CS(=O)(=O)CCNCc1ccc(-c2ccc3ncnc(Nc4ccc(OCc5cccc(F)c5)c(Cl)c4)c3c2)o1 [lapatinib] | sensitive | insensitive | sensitive | insensitive | –
3 | CNC(=O)c1c(F)cccc1Nc1nc(Nc2cc3c(cc2OC)CCN3C(=O)CN(C)C)nc2[nH]ccc12 [GSK1838705] | neither inhibitor had an effect | neither inhibitor had an effect | neither inhibitor had an effect | inhibited the proliferation of MCF-7 in a dose-dependent manner | –
4 | B1 | – | – | – | – | Kd [5]: 9.7 nM; fold tighter binding than wild-type Fyn SH2 domain [6]: around 380 fold
5 | B2 | – | – | – | – | Kd [7]: 3700 nM
6 | B3 | – | – | – | – | Number of pTyr sites identified ([8]; 0.375 nmol (1x) pTyr-binding sites): 679; Number of pTyr sites identified ([8]; 1.875 nmol (5x) pTyr-binding sites): 938; Number of pTyr sites identified ([8]; 11.25 nmol (30x) pTyr-binding sites): 1186
